Reference: patent US10729691B2, “Treatment of infectious diseases with glucose uptake inhibitors” (Kadmon Corporation LLC, priority 2015, dated 2020)

Test system: P. falciparum (3D7 strain)-infected erythrocyte cultures
Experiment: LC-MS metabolomics analysis of ATP levels in infected erythrocyte cultures
Format: cell-based, Plasmodium falciparum
Conditions: 2.5 uM compound
Method: The ATP levels of the infected cells are substantially depleted within 15 minutes of compound exposure and remain so for the duration of the experiment.
Cellular metabolite levels were determined in cultures that had been enriched for late stage (trophozoite/schizont)-infected erythrocytes by centrifuging a bulk culture suspension over a two-step Percoll gradient (65%/35% Percoll) at 1,500 RCF for 15 minutes and collecting the parasitized erythrocytes at the interface. 10 uL of packed cells were pelleted from the resulting cultures by centrifugation (500 RCF, 5 minutes), the culture medium removed by aspiration, and the cells extracted with 1.2 mL of 80% methanol/20% on dry ice. The first extraction was collected as the supernatant after centrifugation (1,000 RCF, 5 minutes) and the pellet extracted again with 0.3 mL of 80% methanol/20%. The two extracts were pooled, dried under nitrogen and resuspended in 200 uL of water prior to LC-MS analysis. […]
(§1) The sample was analyzed on an Exactive mass spectrometer (Thermo Scientific) to determine the chromatographic peak areas the analytes and internal standards. Glucose and lactate were quantified by taking the ratio of the unlabeled peak area to the area of the isotope-labeled standard.

SMILES | time until ATP levels of the infected cells are substantially depleted [min]
CC(C)NC(=O)COc1cccc(-c2nc(Nc3ccc4[nH]ncc4c3)c3sccc3n2)c1 [Example 3] | ≤ 15

Test system: P. falciparum-infected RBCs
Experiment: Glycolysis IC50 / lactate excretion assay in P. falciparum-infected RBCs
Format: cell-based
Conditions: Plasmodium falciparum
Method: The cultures were harvested and DNA quantitated using the standard Sybr Green I fluorescence assay. […] The culture medium was harvested and extracellular lactic acid was quantified by LC-MS.
P. falciparum (HB-3 strain) cultures were maintained in standard culture conditions. […] Parasites were grown in O+ donor blood, 2% hematocrit.
Parasite cultures were seeded in 96-well plates (1% hematocrit, 1-2% starting parasitemia, 100 μL total volume) with varying concentrations of the test compounds in a final concentration of 0.1% DMSO. Plates were cultured for 48 hours before harvesting the culture medium for LC-MS analysis. At harvest, thin smears were taken and examined microscopically to observe any alterations in parasite morphology.
Culture medium samples were diluted in 9 volumes of methanol containing U-^13C-glucose and 1-^13C-lactate (final concentration 0.25 mM each). The samples were clarified by centrifugation at 13,000 RCF for 10 minutes. […] Mobile phase A was acetonitrile, and mobile phase B was 20 mM ammonium acetate (pH 9.4).
as §1

SMILES | IC50 [nM]
CC(C)NC(=O)COc1cccc(-c2nc(Nc3ccc4[nH]ncc4c3)c3sccc3n2)c1 [Example 3] | 101 to 250
CCC(CC)NC(=O)COc1cccc(-c2nc3c(c(Nc4ccc(-c5cn[nH]c5)cc4)n2)CN(C(C)=O)CC3)c1 [Example 45, 2-(3-(4-((4-(1H-pyrazol-4-yl)phenyl)amino)-6-acetyl-5,6,7,8-tetrahydropyrido[4,3-d]pyrimidin-2-yl)phenoxy)-N-(pentan-3-yl)acetamide] | 10 to 100
CC(C)CNC(=O)COc1cccc(-c2nc3c(c(Nc4ccc(-c5cn[nH]c5)cc4)n2)COCC3)c1 [Example 46, 2-(3-(4-((4-(1H-pyrazol-4-yl)phenyl)amino)-7,8-dihydro-5H-pyrano[4,3-d]pyrimidin-2-yl)phenoxy)-N-isobutylacetamide] | 10 to 100
CC(C)(C)CNC(=O)COc1cccc(-c2nc3c(c(Nc4ccc(-c5cn[nH]c5)cc4)n2)COCC3)c1 [Example 47, 2-(3-(4-((4-(1H-pyrazol-4-yl)phenyl)amino)-7,8-dihydro-5H-pyrano[4,3-d]pyrimidin-2-yl)phenoxy)-N-neopentylacetamide] | 10 to 100
CC(=O)N1CCc2nc(-c3cccc(OCC(=O)NC(C)(C)C)c3)nc(Nc3ccc(-c4cn[nH]c4)cc3)c2C1 [Example 48, 2-(3-(4-((4-(1H-pyrazol-4-yl)phenyl)amino)-6-acetyl-5,6,7,8-tetrahydropyrido[4,3-d]pyrimidin-2-yl)phenoxy)-N-(tert-butyl)acetamide] | 10 to 100
O=C(COc1cccc(-c2nc3c(c(Nc4ccc(-c5cn[nH]c5)cc4)n2)COCC3)c1)NC1CCCC1 [Example 51, 2-(3-(4-((4-(1H-pyrazol-4-yl)phenyl)amino)-7,8-dihydro-5H-pyrano[4,3-d]pyrimidin-2-yl)phenoxy)-N-cyclopentylacetamide] | 101 to 250
O=C(COc1cccc(-c2nc3c(c(Nc4ccc(-c5cn[nH]c5)cc4)n2)COCC3)c1)NC1CCC1 [Example 52, 2-(3-(4-((4-(1H-pyrazol-4-yl)phenyl)amino)-7,8-dihydro-5H-pyrano[4,3-d]pyrimidin-2-yl)phenoxy)-N-cyclobutylacetamide] | 101 to 250
CC(C)NC(=O)COc1cccc(-c2nc(Nc3ccc(-c4cn[nH]c4)cc3)c3cnccc3n2)c1 [Example 53, 2-(3-(4-((4-(1H-pyrazol-4-yl)phenyl)amino)pyrido[4,3-d]pyrimidin-2-yl)phenoxy)-N-isopropylacetamide] | 101 to 250
CC(=O)N1Cc2nc(-c3cccc(OCC(=O)NC(C)C)c3)nc(Nc3ccc(-c4cn[nH]c4)cc3)c2C1 [Example 54, 2-(3-(4-((4-(1H-pyrazol-4-yl)phenyl)amino)-6-acetyl-6,7-dihydro-5H-pyrrolo[3,4-d]pyrimidin-2-yl)phenoxy)-N-isopropylacetamide] | 501 to 1000
CCC(CC)NC(=O)COc1cccc(-c2nc3c(c(Nc4ccc(-c5cn[nH]c5)cc4)n2)CN(C(C)=O)C3)c1 [Example 55, 2-(3-(4-((4-(1H-pyrazol-4-yl)phenyl)amino)-6-acetyl-6,7-dihydro-5H-pyrrolo[3,4-d]pyrimidin-2-yl)phenoxy)-N-(pentan-3-yl)acetamide] | 10 to 100
CC(=O)N1Cc2nc(-c3cccc(OCC(=O)NC(C)(C)C)c3)nc(Nc3ccc(-c4cn[nH]c4)cc3)c2C1 [Example 56, 2-(3-(4-((4-(1H-pyrazol-4-yl)phenyl)amino)-6-acetyl-6,7-dihydro-5H-pyrrolo[3,4-d]pyrimidin-2-yl)phenoxy)-N-(tert-butyl)acetamide] | 101 to 250
CC(=O)N1CCc2nc(-c3cccc(OCC(=O)NC4CCCC4)c3)nc(Nc3ccc(-c4cn[nH]c4)cc3)c2C1 [Example 57, 2-(3-(4-((4-(1H-pyrazol-4-yl)phenyl)amino)-6-acetyl-5,6,7,8-tetrahydropyrido[4,3-d]pyrimidin-2-yl)phenoxy)-N-cyclopentylacetamide] | 101 to 250
CC(C)(C)NC(=O)COc1cccc(-c2nc(Nc3ccc(-c4cn[nH]c4)cc3)c3cnccc3n2)c1 [Example 58, 2-(3-(4-((4-(1H-pyrazol-4-yl)phenyl)amino)pyrido[4,3-d]pyrimidin-2-yl)phenoxy)-N-(tert-butyl)acetamide] | 101 to 250
CC(=O)N1CCc2nc(-c3cccc(OCC(=O)NCC(C)C)c3)nc(Nc3ccc(-c4cn[nH]c4)cc3)c2C1 [Example 59, 2-(3-(4-((4-(1H-pyrazol-4-yl)phenyl)amino)-6-acetyl-5,6,7,8-tetrahydropyrido[4,3-d]pyrimidin-2-yl)phenoxy)-N-isobutylacetamide] | 101 to 250
